Source: patent US20080009418A1, “Selective Inhibitors” (Alchemia LTD., priority 2004, published 2008)

Columns and labels:
Human δ-opioid (DOP) = biological target: T1, Human δ-opioid (DOP) (Homo sapiens, UniProt P41143); test: Radioligand binding, human δ-opioid (DOP) membranes, FlashPlate, [3H]-Bremazocine; details: compound at 10 μM, [3H]-Bremazocine; for A1: inhibition of radioligand binding: human DOP membranes
T1 construct: purchased Perkin Elmer Biosignal
In short: (§1)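 Cloned human receptor membranes were coated onto FlashPlate wells and incubated with radioligand and compound (added from a 0.5 mM DMSO daughter plate) for 1 hour at room temperature in the dark. Scintillation counting gave percent inhibition, with DMSO defining total and reference ligand defining non-specific binding.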

Human κ-Opioid (KOP) = biological target: T2, Human κ-Opioid (KOP) (Homo sapiens, UniProt P41145); test: Radioligand binding, human κ-opioid (KOP) membranes, filtration, [3H]-Diprenorphine; details: compound at 10 μM, [3H]-Diprenorphine; for A2: inhibition of radioligand binding: human KOP membranes
T2 construct: purchased Perkin Elmer Biosignal
In short: (§2)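 Membranes from cloned human receptors were incubated with compound and radioligand for 1 hour at room temperature. Bound ligand was collected on 0.3% PEI-soaked filters, washed with cold 50 mM Tris-HCl pH 7.4, and counted by scintillation. Percent inhibition was computed against DMSO totals and reference-ligand nonspecific wells.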

Human Melanocortin (MC3) = biological target: T3, Human Melanocortin (MC3) (Homo sapiens, UniProt P41968); test: Radioligand binding, human melanocortin MC3 membranes, FlashPlate, [125I]-NDP-αMSH; details: compound at 10 μM, [125I]-NDP-αMSH; for A3: inhibition of radioligand binding: human MC3 membranes
T3 construct: purchased Perkin Elmer Biosignal
In short: as §1

Human Melanocortin (MC4) = biological target: T4, Human Melanocortin (MC4) (Homo sapiens, UniProt P32245); test: Radioligand binding, human melanocortin MC4 membranes, FlashPlate, [125I]-NDP-αMSH; details: compound at 10 μM, [125I]-NDP-αMSH; for A4: inhibition of radioligand binding: human MC4 membranes
T4 construct: purchased Perkin Elmer Biosignal
In short: as §1

Human melanocortin (MC5) = biological target: T5, Human melanocortin (MC5) (Homo sapiens, UniProt P33032); test: Radioligand binding, human melanocortin MC5 membranes, FlashPlate, [125I]-NDP-αMSH; details: compound at 10 μM, [125I]-NDP-αMSH; for A5: inhibition of radioligand binding: human MC5 membranes
T5 construct: purchased Perkin Elmer Biosignal
In short: as §1

[1] = biological target: T6, Human melanin-concentrating hormone (MCH1) (Homo sapiens, UniProt Q99705); test: Radioligand binding, human melanin-concentrating hormone MCH1 membranes, FlashPlate, [125I]-S36057; details: compound at 10 μM; for A6: inhibition of radioligand binding: [125I]-S36057, human MCH1 membranes
T6 construct: purchased Perkin Elmer Biosignal
In short: as §1

Human μ-opioid (MOP) = biological target: T7, Human μ-opioid (MOP) (Homo sapiens, UniProt P35372); test: Radioligand binding, human μ-opioid (MOP) membranes, FlashPlate, [3H]-Naloxone; details: compound at 10 μM, [3H]-Naloxone; for A7: inhibition of radioligand binding: human MOP membranes
T7 construct: purchased Perkin Elmer Biosignal
In short: as §1

Human neurokinin (NK1) = biological target: T8, Human neurokinin (NK1) (Homo sapiens, UniProt P25103); test: Radioligand binding, human neurokinin NK1 membranes, filtration, [125I]-Substance P; details: compound at 10 μM, [125I]-Substance P; for A8: inhibition of radioligand binding: human NK1 membranes
T8 construct: purchased Perkin Elmer Biosignal
In short: as §2

[2] = biological target: T9, Human neuropeptide Y (NPY-Y1) (Homo sapiens, UniProt P25929); test: Radioligand binding, human neuropeptide Y NPY-Y1 membranes, FlashPlate, [125I]-PYY; details: compound at 10 μM, [125I]-PYY; for A9: inhibition of radioligand binding: human NPY-Y1 membranes
T9 construct: purchased Perkin Elmer Biosignal
T9 sequence (P25929 1-384): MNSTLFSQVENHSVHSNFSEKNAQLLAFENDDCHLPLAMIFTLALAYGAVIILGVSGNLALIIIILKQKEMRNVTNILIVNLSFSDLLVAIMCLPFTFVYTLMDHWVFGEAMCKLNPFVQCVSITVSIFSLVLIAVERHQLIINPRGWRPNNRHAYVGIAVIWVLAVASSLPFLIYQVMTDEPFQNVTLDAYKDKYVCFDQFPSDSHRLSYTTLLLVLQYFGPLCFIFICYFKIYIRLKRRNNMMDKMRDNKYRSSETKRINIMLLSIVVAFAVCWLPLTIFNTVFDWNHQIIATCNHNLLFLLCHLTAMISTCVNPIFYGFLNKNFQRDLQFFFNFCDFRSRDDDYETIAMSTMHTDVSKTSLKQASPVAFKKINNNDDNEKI
In short: as §1

Human opioid (ORL1) = biological target: T10, Human opioid (ORL1) (Homo sapiens, UniProt P41146); test: Radioligand binding, human opioid ORL1 membranes, FlashPlate, [125I]-Nociceptin; details: compound at 10 μM, [125I]-Nociceptin; for A10: inhibition of radioligand binding: human ORL1 membranes
T10 construct: purchased Perkin Elmer Biosignal
In short: as §1

Mouse urotensin (mUR2) = biological target: T11, Mouse urotensin (mUR2) (Mus musculus, UniProt Q8VIH9); test: Radioligand binding, mouse urotensin mUR2 membranes, FlashPlate, [125I]-Urotensin II; details: compound at 10 μM, [125I]-Urotensin II; for A11: inhibition of radioligand binding: mouse mUR2 membranes
T11 construct: purchased Perkin Elmer Biosignal
T11 sequence (Q8VIH9 1-385): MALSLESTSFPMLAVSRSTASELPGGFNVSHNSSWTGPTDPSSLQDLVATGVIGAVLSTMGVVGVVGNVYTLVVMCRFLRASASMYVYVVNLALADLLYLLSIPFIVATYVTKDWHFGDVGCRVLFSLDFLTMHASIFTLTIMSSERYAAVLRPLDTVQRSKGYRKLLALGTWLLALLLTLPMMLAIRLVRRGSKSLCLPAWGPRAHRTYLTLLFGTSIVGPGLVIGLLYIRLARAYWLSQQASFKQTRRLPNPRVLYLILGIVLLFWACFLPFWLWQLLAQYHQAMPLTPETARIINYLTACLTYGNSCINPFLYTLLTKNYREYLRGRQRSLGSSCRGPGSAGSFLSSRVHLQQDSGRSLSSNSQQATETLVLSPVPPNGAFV
In short: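 Cloned mouse urotensin (mUR2) receptor membranes from Perkin Elmer Biosignal were immobilized in FlashPlate microplates using a proprietary coating. Each well got 19.5 μl buffer, then 0.5 μl of DMSO, reference ligand, or compound. Adding 5 μl of [125I]-Urotensin II, diluted to 5× final concentration in binding buffer, started binding. Plates were sealed with TopSeal-A and incubated 1 hour at room temperature in the dark. Wells were counted for 30 seconds each on a TopCount after a 60-second delay, and percentage inhibition was calculated.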

T2 sequence (P41145 whole entry): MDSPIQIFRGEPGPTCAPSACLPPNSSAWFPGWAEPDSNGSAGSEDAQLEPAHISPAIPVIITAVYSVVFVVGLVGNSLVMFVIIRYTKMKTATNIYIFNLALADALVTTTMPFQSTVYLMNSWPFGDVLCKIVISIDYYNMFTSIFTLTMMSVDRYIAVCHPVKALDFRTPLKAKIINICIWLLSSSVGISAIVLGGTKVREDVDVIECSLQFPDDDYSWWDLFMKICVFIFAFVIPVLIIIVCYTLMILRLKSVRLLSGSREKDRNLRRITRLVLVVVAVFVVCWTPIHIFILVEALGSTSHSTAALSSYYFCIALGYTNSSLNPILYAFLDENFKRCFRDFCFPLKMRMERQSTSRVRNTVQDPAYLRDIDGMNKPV
T4 sequence (P32245 whole entry): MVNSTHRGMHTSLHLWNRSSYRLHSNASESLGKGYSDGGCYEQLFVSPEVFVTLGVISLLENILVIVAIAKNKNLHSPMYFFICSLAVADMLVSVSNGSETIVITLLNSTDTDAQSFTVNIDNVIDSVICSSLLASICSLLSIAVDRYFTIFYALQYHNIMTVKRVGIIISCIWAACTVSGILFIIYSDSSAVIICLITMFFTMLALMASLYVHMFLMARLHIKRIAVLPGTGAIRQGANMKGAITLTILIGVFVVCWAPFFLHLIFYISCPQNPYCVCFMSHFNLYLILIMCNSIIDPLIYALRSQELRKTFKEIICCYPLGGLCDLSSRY
T7 sequence (P35372 whole entry): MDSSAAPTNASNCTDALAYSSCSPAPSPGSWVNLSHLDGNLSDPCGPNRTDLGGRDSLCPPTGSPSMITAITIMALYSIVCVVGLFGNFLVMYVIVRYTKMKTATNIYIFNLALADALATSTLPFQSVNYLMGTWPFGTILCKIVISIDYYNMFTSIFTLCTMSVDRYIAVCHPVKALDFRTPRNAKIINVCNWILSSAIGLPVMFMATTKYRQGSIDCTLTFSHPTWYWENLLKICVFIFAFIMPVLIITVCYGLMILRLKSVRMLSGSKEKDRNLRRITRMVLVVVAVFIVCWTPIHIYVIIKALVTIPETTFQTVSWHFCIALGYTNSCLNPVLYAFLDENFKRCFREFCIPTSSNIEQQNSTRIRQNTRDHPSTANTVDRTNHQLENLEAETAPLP
T10 sequence (P41146 whole entry): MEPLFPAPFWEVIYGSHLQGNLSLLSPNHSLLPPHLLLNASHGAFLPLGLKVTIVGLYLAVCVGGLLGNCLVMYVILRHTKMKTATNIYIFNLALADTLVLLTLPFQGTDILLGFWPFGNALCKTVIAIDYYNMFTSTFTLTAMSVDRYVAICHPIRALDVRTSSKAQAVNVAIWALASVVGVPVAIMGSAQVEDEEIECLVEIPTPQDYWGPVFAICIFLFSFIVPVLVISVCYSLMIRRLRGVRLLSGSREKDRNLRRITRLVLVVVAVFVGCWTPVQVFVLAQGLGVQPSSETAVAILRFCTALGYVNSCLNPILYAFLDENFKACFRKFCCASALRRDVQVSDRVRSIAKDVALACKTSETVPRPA
T8 sequence (P25103 whole entry): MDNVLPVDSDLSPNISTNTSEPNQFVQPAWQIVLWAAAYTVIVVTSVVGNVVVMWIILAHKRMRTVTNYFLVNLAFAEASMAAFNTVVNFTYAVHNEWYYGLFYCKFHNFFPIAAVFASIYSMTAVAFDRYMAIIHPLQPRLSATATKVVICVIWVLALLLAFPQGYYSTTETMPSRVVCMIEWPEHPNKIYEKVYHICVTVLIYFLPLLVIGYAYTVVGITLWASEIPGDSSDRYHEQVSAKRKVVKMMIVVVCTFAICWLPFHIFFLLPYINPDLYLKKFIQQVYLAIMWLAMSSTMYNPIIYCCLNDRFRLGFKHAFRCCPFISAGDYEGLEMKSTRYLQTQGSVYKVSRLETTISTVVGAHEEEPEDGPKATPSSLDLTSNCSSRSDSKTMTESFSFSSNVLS
T6 sequence (Q99705 whole entry): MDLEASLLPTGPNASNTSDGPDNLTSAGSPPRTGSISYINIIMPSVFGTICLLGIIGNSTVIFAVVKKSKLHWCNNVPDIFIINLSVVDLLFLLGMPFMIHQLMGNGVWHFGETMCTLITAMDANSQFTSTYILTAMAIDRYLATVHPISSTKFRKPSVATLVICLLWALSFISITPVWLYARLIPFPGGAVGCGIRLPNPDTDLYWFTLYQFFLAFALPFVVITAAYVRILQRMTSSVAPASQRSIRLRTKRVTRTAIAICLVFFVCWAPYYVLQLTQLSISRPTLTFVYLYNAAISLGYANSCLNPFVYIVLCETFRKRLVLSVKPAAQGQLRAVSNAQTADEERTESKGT
T3 sequence (P41968 whole entry): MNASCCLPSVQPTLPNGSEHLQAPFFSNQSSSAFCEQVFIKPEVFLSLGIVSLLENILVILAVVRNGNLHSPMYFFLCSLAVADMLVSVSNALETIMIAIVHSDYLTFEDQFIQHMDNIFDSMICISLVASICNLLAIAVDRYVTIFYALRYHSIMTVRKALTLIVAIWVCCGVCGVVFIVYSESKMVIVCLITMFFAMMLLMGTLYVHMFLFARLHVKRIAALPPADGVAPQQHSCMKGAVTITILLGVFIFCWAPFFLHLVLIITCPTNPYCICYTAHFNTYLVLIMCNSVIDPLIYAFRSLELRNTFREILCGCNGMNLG
T5 sequence (P33032 whole entry): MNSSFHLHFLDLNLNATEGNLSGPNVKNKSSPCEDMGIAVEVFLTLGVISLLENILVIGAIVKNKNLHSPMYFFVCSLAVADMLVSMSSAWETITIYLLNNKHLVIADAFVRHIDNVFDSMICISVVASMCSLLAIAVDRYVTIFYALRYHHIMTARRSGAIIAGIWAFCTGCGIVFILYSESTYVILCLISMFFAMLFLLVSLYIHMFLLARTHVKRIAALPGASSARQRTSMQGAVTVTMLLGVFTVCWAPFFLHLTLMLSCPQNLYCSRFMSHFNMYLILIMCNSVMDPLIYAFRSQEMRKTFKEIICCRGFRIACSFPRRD
T1 sequence (P41143 whole entry): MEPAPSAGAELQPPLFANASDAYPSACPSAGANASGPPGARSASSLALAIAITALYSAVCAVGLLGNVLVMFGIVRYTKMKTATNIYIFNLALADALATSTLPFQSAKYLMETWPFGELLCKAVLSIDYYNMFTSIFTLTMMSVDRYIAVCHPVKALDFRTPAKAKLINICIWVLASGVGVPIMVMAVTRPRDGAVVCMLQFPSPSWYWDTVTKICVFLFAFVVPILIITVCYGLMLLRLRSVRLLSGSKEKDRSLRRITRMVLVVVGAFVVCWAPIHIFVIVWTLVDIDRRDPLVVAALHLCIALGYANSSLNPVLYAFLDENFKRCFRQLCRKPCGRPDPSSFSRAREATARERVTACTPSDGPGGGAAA

Row | SMILES | A1: inhibition of radioligand binding (Human δ-opioid (DOP)) | A2: inhibition of radioligand binding (Human κ-Opioid (KOP)) | A3: inhibition of radioligand binding (Human Melanocortin (MC3)) | A4: inhibition of radioligand binding (Human Melanocortin (MC4)) | A5: inhibition of radioligand binding (Human melanocortin (MC5)) | A8: inhibition of radioligand binding (Human neurokinin (NK1)) | A9: inhibition of radioligand binding [2] | A11: inhibition of radioligand binding (Mouse urotensin (mUR2)) | A1: inhibition of radioligand binding, human δ-opioid (DOP) (Human δ-opioid (DOP)) | A3: inhibition of radioligand binding, human melanocortin (MC3) (Human Melanocortin (MC3)) | A4: inhibition of radioligand binding, human melanocortin (MC4) (Human Melanocortin (MC4)) | A5: inhibition of radioligand binding, human melanocortin (MC5) (Human melanocortin (MC5)) | A6: inhibition of radioligand binding, human melanin-concentrating hormone (MCH1) ([1]; [125I]-S36057) | A7: inhibition of radioligand binding, human μ-opioid (MOP) (Human μ-opioid (MOP)) | A8: inhibition of radioligand binding, human neurokinin (NK1) (Human neurokinin (NK1)) | A9: inhibition of radioligand binding, human neuropeptide Y (NPY-Y1) [2] | A10: inhibition of radioligand binding, human opioid (ORL1) (Human opioid (ORL1)) | A11: inhibition of radioligand binding, mouse urotensin (mUR2) (Mouse urotensin (mUR2)) | also measured
1 | NCCCC(=O)NC1C(OCc2ccc3ccccc3c2)OC(COCc2ccc(Cl)cc2)C(O)C1OCc1ccc(Cl)cc1 (single isomer, unassigned) [compound 459] | − (“−” indicates less than 50% inhibition at 10 μM) | − (“−” indicates less than 50% inhibition at 10 μM) | + (“+” indicates greater than 50% inhibition at 10 μM) | + (“+” indicates greater than 50% inhibition at 10 μM) | + (“+” indicates greater than 50% inhibition at 10 μM) | + (“+” indicates greater than 50% inhibition at 10 μM) | − (“−” indicates less than 50% inhibition at 10 μM) | − (“−” indicates less than 50% inhibition at 10 μM) | – | – | – | – | – | – | – | – | – | – | A6: inhibition of radioligand binding ([1]; 10 µM): + (“+” indicates greater than 50% inhibition at 10 μM); A7: inhibition of radioligand binding (Human μ-opioid (MOP); 10 µM): − (“−” indicates less than 50% inhibition at 10 μM); A10: inhibition of radioligand binding (Human opioid (ORL1); 10 µM): + (“+” indicates greater than 50% inhibition at 10 μM)
2 | N=C(N)NCC(=O)NC1C(OCc2ccc(-c3ccccc3)cc2)OC(COCc2ccccc2)C(O)C1OCc1ccc(Cl)cc1 (stereo not shown) [compound 400] | − (“−” indicates less than 50% inhibition at 10 μM) | − (“−” indicates less than 50% inhibition at 10 μM) | + (“+” indicates greater than 50% inhibition at 10 μM) | + (“+” indicates greater than 50% inhibition at 10 μM) | + (“+” indicates greater than 50% inhibition at 10 μM) | + (“+” indicates greater than 50% inhibition at 10 μM) | − (“−” indicates less than 50% inhibition at 10 μM) | − (“−” indicates less than 50% inhibition at 10 μM) | – | – | – | – | – | – | – | – | – | – | A6: inhibition of radioligand binding [1]: + (“+” indicates greater than 50% inhibition at 10 μM); A7: inhibition of radioligand binding (Human μ-opioid (MOP)): − (“−” indicates less than 50% inhibition at 10 μM); A10: inhibition of radioligand binding (Human opioid (ORL1)): + (“+” indicates greater than 50% inhibition at 10 μM)
3 | N=C(N)NCCC(=O)N[C@H]1C(OCc2ccc(Cl)cc2)O[C@H](COCc2ccccc2)[C@@H](O)[C@@H]1OCc1ccc2ccccc2c1 (stereo partly shown) [compound 530] | – | – | – | – | – | – | – | – | − (“−” indicates less than 50% inhibition at 10 μM) | + (“+” indicates greater than 50% inhibition at 10 μM) | + (“+” indicates greater than 50% inhibition at 10 μM) | + (“+” indicates greater than 50% inhibition at 10 μM) | + (“+” indicates greater than 50% inhibition at 10 μM) | + (“+” indicates greater than 50% inhibition at 10 μM) | + (“+” indicates greater than 50% inhibition at 10 μM) | − (“−” indicates less than 50% inhibition at 10 μM) | + (“+” indicates greater than 50% inhibition at 10 μM) | − (“−” indicates less than 50% inhibition at 10 μM) | A2: inhibition of radioligand binding, human κ-opioid (KOP) (Human κ-Opioid (KOP)): + (“+” indicates greater than 50% inhibition at 10 μM)
4 | CO[C@H]1[C@H](O)[C@@H](COCc2ccc3ccccc3c2)OC(OCCc2ccccc2)[C@@H]1NC(=O)CCNC(=N)N (stereo partly shown) [compound 114] | – | – | – | – | – | – | – | – | – | – | – | – | – | – | – | – | – | – | A1 radioligand binding, percentage inhibition (Human δ-opioid (DOP)): − (“−” indicates less than 50% inhibition at 10 μM); A2 radioligand binding, percentage inhibition (Human κ-Opioid (KOP)): + (“+” indicates greater than 50% inhibition at 10 μM); A3 radioligand binding, percentage inhibition (Human Melanocortin (MC3)): − (“−” indicates less than 50% inhibition at 10 μM); A4 radioligand binding, percentage inhibition (Human Melanocortin (MC4)): + (“+” indicates greater than 50% inhibition at 10 μM); A5 radioligand binding, percentage inhibition (Human melanocortin (MC5)): + (“+” indicates greater than 50% inhibition at 10 μM); A6 radioligand binding, percentage inhibition ([1]; [125I]-S36057): − (“−” indicates less than 50% inhibition at 10 μM); A7 radioligand binding, percentage inhibition (Human μ-opioid (MOP)): − (“−” indicates less than 50% inhibition at 10 μM); A8 radioligand binding, percentage inhibition (Human neurokinin (NK1)): + (“+” indicates greater than 50% inhibition at 10 μM); A9 radioligand binding, percentage inhibition [2]: − (“−” indicates less than 50% inhibition at 10 μM); A10 radioligand binding, percentage inhibition (Human opioid (ORL1)): − (“−” indicates less than 50% inhibition at 10 μM); A11 radioligand binding, percentage inhibition (Mouse urotensin (mUR2)): − (“−” indicates less than 50% inhibition at 10 μM)
5 | NCCC(=O)NC1C(OCc2ccc(Cl)cc2)OC(COCc2ccc(Cl)cc2)C(O)C1OCc1ccc2ccccc2c1 (single isomer, unassigned) [compound 482] | – | – | – | – | – | – | – | – | − (“−” indicates less than 50% inhibition at 10 μM) | + (“+” indicates greater than 50% inhibition at 10 μM) | + (“+” indicates greater than 50% inhibition at 10 μM) | + (“+” indicates greater than 50% inhibition at 10 μM) | + (“+” indicates greater than 50% inhibition at 10 μM) | − (“−” indicates less than 50% inhibition at 10 μM) | + (“+” indicates greater than 50% inhibition at 10 μM) | − (“−” indicates less than 50% inhibition at 10 μM) | + (“+” indicates greater than 50% inhibition at 10 μM) | − (“−” indicates less than 50% inhibition at 10 μM) | A2: inhibition of radioligand binding, human κ-opioid (KOP) (Human κ-Opioid (KOP); 10 µM): − (“−” indicates less than 50% inhibition at 10 μM)
